Measured values published in patent publication US11802120B2, “Fused cyclic urea derivatives as CRHR2 antagonist” (RaQualia Pharma Inc., priority 2018, dated 2023).

Target: T1, human CRHR2-alpha (Homo sapiens, UniProt Q13324)
T1 sequence (Q13324 1-411): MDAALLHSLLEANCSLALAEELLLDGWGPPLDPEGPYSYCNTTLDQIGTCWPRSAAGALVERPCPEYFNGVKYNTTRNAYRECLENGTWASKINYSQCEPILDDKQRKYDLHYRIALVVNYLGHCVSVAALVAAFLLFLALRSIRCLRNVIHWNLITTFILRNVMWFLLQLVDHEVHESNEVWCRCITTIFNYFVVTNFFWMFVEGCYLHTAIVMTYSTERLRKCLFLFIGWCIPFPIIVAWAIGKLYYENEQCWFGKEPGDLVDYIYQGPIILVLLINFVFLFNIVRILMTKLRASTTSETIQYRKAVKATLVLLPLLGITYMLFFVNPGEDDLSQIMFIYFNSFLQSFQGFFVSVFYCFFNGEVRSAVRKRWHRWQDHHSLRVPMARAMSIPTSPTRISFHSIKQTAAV
Experiment: cAMP functional assay for human CRHR2 (LANCE Ultra cAMP, TR-FRET)
Type: cell-based
Settings: CHO-K1 cells expressing human CRHR2-alpha, agonist human urocortin2 at EC80, cAMP; read-out: IC50 against CRHR2
Summary of the method: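 Inhibition of agonist-driven cAMP was assessed in recombinant CHO-K1 cells at 25° C, using 30 min compound pretreatment and 30 min stimulation with EC80 human urocortin2 (CRHR2) or CRF (CRHR1). IC50 came from dose-response fitting.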

CCc1nc2ncc(-n3c(=O)n(C[C@H]4CC[C@H](NC(=O)c5cc(Cl)cnc5C)CC4)c4ccccc43)cc2o1 [Example 355, 5-chloro-N-((1r,4r)-4-((3-(2-ethyloxazolo[4,5-b]pyridin-6-yl)-2-oxo-2,3-dihydro-1H-benzo[d]imidazol-1-yl)methyl)cyclohexyl)-2-methylnicotinamide]
IC50: < 300 nM

Cc1nc2ncc(-n3c(=O)n(C[C@H]4CC[C@H](NC(=O)c5cc(Cl)cnc5C)CC4)c4ccccc43)cc2o1 [Example 356, 5-chloro-2-methyl-N-((1r,4r)-4-((3-(2-methyloxazolo[4,5-b]pyridin-6-yl)-2-oxo-2,3-dihydro-1H-benzo[d]imidazol-1-yl)methyl)cyclohexyl)nicotinamide]
IC50: < 300 nM

Cc1cc(OCCO)ncc1-n1c(=O)n(C[C@H]2CC[C@H](NC(=O)c3cc(Cl)cnc3C(F)(F)F)CC2)c2ccccc21 [Example 357, 5-chloro-N-((1r,4r)-4-((3-(6-(2-hydroxyethoxy)-4-methylpyridin-3-yl)-2-oxo-2,3-dihydro-1H-benzo[d]imidazol-1-yl)methyl)cyclohexyl)-2-(trifluoromethyl)nicotinamide]
IC50: < 300 nM

Cc1ncc(Cl)cc1C(=O)N[C@H]1CC[C@H](Cn2c(=O)n(-c3ccc4ncccc4c3)c3cccnc32)CC1 [Example 358, 5-chloro-2-methyl-N-((1r,4r)-4-((2-oxo-1-(quinolin-6-yl)-1H-imidazo[4,5-b]pyridin-3(2H)-yl)methyl)cyclohexyl) nicotinamide]
IC50: < 300 nM

Cc1ncc(Cl)cc1C(=O)N[C@H]1CC[C@H](Cn2c(=O)n(-c3cnc4ccccc4c3)c3cccnc32)CC1 [Example 359, 5-chloro-2-methyl-N-((1r,4r)-4-((2-oxo-1-(quinolin-3-yl)-1H-imidazo[4,5-b]pyridin-3(2H)-yl)methyl)cyclohexyl) nicotinamide]
IC50: < 300 nM

O=C(N[C@H]1CC[C@H](Cn2c(=O)n(-c3ccc4ncccc4c3)c3cccnc32)CC1)c1cc(Cl)cnc1C(F)(F)F [Example 360, 5-chloro-N-((1r,4r)-4-((2-oxo-1-(quinolin-6-yl)-1H-imidazo [4,5-b]pyridin-3(2H)-yl)methyl)cyclohexyl)-2-(trifluoromethyl) nicotinamide]
IC50: < 300 nM

O=C(N[C@H]1CC[C@H](Cn2c(=O)n(-c3ccc4ncccc4c3)c3cccnc32)CC1)c1cc(Cl)cnc1C(F)F [Example 361, 5-chloro-2-(difluoromethyl)-N-((1r,4r)-4-((2-oxo-1-(quinolin-6-yl)-1H-imidazo[4,5-b]pyridin-3(2H)-yl)methyl)cyclohexyl) nicotinamide]
IC50: < 300 nM

O=C(N[C@H]1CC[C@H](Cn2c(=O)n(-c3ccc4ncccc4c3)c3ncccc32)CC1)c1cc(Cl)cnc1C(F)F [Example 362, 5-chloro-2-(difluoromethyl)-N-((1r,4r)-4-((2-oxo-3-(quinolin-6-yl)-2,3-dihydro-1H-imidazo[4,5-b]pyridin-1-yl)methyl)cyclohexyl)nicotinamide]
IC50: < 300 nM

CNC(=O)c1cc(C)c(-n2c(=O)n(C[C@H]3CC[C@H](NC(=O)c4cc(Cl)cnc4C(F)F)CC3)c3ccccc32)cn1 [Example 363, 5-(3-(((1r,4r)-4-(5-chloro-2-(difluoromethyl)nicotinamido)cyclohexyl)methyl)-2-oxo-2,3-dihydro-1H-benzo[d]imidazol-1-yl)-N,4-dimethylpicolinamide]
IC50: < 300 nM

Cc1nccc(-n2c(=O)n(C[C@H]3CC[C@H](NC(=O)c4cc(Cl)cnc4C(F)F)CC3)c3ccccc32)c1C [Example 364, 5-chloro-2-(difluoromethyl)-N-((1r,4r)-4-((3-(2,3-dimethyl-pyridin-4-yl)-2-oxo-2,3-dihydro-1H-benzo[d]imidazol-1-yl)methyl)cyclohexyl)nicotinamide]
IC50: < 300 nM

O=C(N[C@H]1CC[C@H](Cn2c(=O)n(-c3ccc(OCCO)nc3)c3ccccc32)CC1)c1cc(Cl)cnc1C(F)F [Example 365, 5-chloro-2-(difluoromethyl)-N-((1r,4r)-4-((3-(6-(2-hydroxyethoxy)pyridin-3-yl)-2-oxo-2,3-dihydro-1H-benzo[d]imidazol-1-yl)methyl)cyclohexyl)nicotinamide]
IC50: < 300 nM

O=C(N[C@H]1CC[C@H](Cn2c(=O)n(-c3ccccc3Cl)c3ncccc32)CC1)c1cc(Cl)cnc1C(F)F [Example 366, 5-chloro-N-((1r,4r)-4-((3-(2-chlorophenyl)-2-oxo-2,3-dihydro-1H-imidazo[4,5-b]pyridin-1-yl)methyl)cyclo-hexyl)-2-(difluoromethyl) nicotinamide]
IC50: < 300 nM

O=C(N[C@H]1CC[C@H](Cn2c(=O)n(-c3ccccc3Cl)c3ccncc32)CC1)c1cc(Cl)cnc1C(F)F [Example 367, 5-chloro-N-((1r,4r)-4-((1-(2-chlorophenyl)-2-oxo-1H-imidazo[4,5-c]pyridin-3(2H)-yl)methyl)cyclohexyl)-2-(difluoromethyl)nicotinamide]
IC50: < 300 nM

N#Cc1ncccc1-n1c(=O)n(C[C@H]2CC[C@H](NC(=O)c3cc(Cl)cnc3C(F)F)CC2)c2ccccc21 [Example 368, 5-chloro-N-((1r,4r)-4-((3-(2-cyanopyridin-3-yl)-2-oxo-2,3-dihydro-1H-benzo[d]imidazol-1-yl)methyl)cyclo-hexyl)-2-(difluoromethyl) nicotinamide]
IC50: < 300 nM

N#Cc1nccnc1-n1c(=O)n(C[C@H]2CC[C@H](NC(=O)c3cc(Cl)cnc3C(F)F)CC2)c2ccccc21 [Example 369, 5-chloro-N-((1r,4r)-4-((3-(3-cyanopyrazin-2-yl)-2-oxo-2,3-dihydro-1H-benzo[d]imidazol-1-yl)methyl)cyclohexyl)-2-(difluoromethyl)nicotinamide]
IC50: < 300 nM

Cc1ncc(Cl)cc1C(=O)N[C@H]1CC[C@H](Cn2c(=O)n(-c3ccnc4ccccc34)c3ccccc32)CC1 [Example 370, 5-chloro-2-methyl-N-((1r,4r)-4-((2-oxo-3-(quinolin-4-yl)-2,3-dihydro-1H-benzo[d]imi-dazol-1-yl)methyl)cyclohexyl) nicotinamide]
IC50: < 300 nM

Cc1ncc(Cl)cc1C(=O)N[C@H]1CC[C@H](Cn2c(=O)n(-c3ccc4cnccc4c3)c3ccccc32)CC1 [Example 371, 5-chloro-N-((1r,4r)-4-((3-(isoquinolin-6-yl)-2-oxo-2,3-dihydro-1H-benzo[d]imidazol-1-yl)methyl)cyclo-hexyl)-2-methylnicotinamide]
IC50: < 300 nM

O=C(N[C@H]1CC[C@H](Cn2c(=O)n(-c3ccc(N[C@H]4CCOC4)nc3)c3ccccc32)CC1)c1cc(Cl)cnc1C(F)F [Example 372, 5-chloro-2-(difluoromethyl)-N-((1S,4r)-4-((2-oxo-3-(6-(((S)-tetrahydrofuran-3-yl)amino)pyridin-3-yl)-2,3-dihydro-1H-benzo[d]imidazol-1-yl)methyl)cyclohexyl)nicotinamide]
IC50: < 300 nM

N#Cc1ccncc1-n1c(=O)n(C[C@H]2CC[C@H](NC(=O)c3cc(Cl)cnc3C(F)F)CC2)c2ccccc21 [Example 373, 5-chloro-N-((1r,4r)-4-((3-(4-cyanopyridin-3-yl)-2-oxo-2,3-dihydro-1H-benzo[d]imidazol-1-yl)methyl)cyclohexyl)-2-(difluoromethyl)nicotinamide]
IC50: < 300 nM

Cn1ncc2c(-n3c(=O)n(C[C@H]4CC[C@H](NC(=O)c5cc(Cl)cnc5C(F)F)CC4)c4ccccc43)cccc21 [Example 374, 5-chloro-2-(difluoromethyl)-N-((1r,4r)-4-((3-(1-methyl-1H-indazol-4-yl)-2-oxo-2,3-dihydro-1H-benzo[d]imidazol-1-yl)methyl)cyclohexyl) nicotinamide]
IC50: < 300 nM

N#Cc1cccnc1-n1c(=O)n(C[C@H]2CC[C@H](NC(=O)c3cc(Cl)cnc3C(F)F)CC2)c2ccccc21 [Example 375, 5-chloro-N-((1r,4r)-4-((3-(3-cyanopyridin-2-yl)-2-oxo-2,3-dihydro-1H-benzo[d]imidazol-1-yl)methyl)cyclohexyl)-2-(difluoromethyl)nicotinamide]
IC50: < 300 nM

Cc1ccc(-n2c(=O)n(C[C@H]3CC[C@H](NC(=O)c4cc(Cl)cnc4C(F)F)CC3)c3ccccc32)c(C)n1 [Example 376, 5-chloro-2-(difluoromethyl)-N-((1r,4r)-4-((3-(2,6-dimethyl-pyridin-3-yl)-2-oxo-2,3-dihydro-1H-benzo[d]imidazol-1-yl)methyl)cyclohexyl) nicotinamide]
IC50: < 300 nM

Cc1cc(-n2c(=O)n(C[C@H]3CC[C@H](NC(=O)c4cc(Cl)cnc4C(F)F)CC3)c3ccccc32)ccn1 [Example 377, 5-chloro-2-(difluoromethyl)-N-((1r,4r)-4-((3-(2-methyl-pyridin-4-yl)-2-oxo-2,3-dihydro-1H-benzo[d]imidazol-1-yl)methyl)cyclohexyl) nicotinamide]
IC50: < 300 nM

O=C(N[C@H]1CC[C@H](Cn2c(=O)n(-c3ccc(N[C@@H]4CCOC4)nc3)c3ccccc32)CC1)c1cc(Cl)cnc1C(F)F [Example 379, 5-chloro-2-(difluoromethyl)-N-((1R,4r)-4-((2-oxo-3-(6-(((R)-tetrahydrofuran-3-yl)amino)pyridin-3-yl)-2,3-dihydro-1H-benzo[d]imidazol-1-yl)methyl)cyclohexyl) nicotinamide]
IC50: < 300 nM
